Reference: ChEMBL document CHEMBL5120959, “Pyrrospirones K-Q, Decahydrofluorene-Class Alkaloids from the Marine-Derived Fungus Penicillium sp. SCSIO 41512” (J Nat Prod, 2022)
≈ marks a conversion by molar mass, not a printed value.

Assays:
[1] = biological target: Tyrosine-protein phosphatase non-receptor type 6 (Homo sapiens, UniProt P29350); assay: Inhibition of human SHP1
[2] = biological target: T1, Receptor-type tyrosine-protein phosphatase C (Homo sapiens, UniProt P08575); assay: Inhibition of human CD45
T1 sequence (P08575 whole entry): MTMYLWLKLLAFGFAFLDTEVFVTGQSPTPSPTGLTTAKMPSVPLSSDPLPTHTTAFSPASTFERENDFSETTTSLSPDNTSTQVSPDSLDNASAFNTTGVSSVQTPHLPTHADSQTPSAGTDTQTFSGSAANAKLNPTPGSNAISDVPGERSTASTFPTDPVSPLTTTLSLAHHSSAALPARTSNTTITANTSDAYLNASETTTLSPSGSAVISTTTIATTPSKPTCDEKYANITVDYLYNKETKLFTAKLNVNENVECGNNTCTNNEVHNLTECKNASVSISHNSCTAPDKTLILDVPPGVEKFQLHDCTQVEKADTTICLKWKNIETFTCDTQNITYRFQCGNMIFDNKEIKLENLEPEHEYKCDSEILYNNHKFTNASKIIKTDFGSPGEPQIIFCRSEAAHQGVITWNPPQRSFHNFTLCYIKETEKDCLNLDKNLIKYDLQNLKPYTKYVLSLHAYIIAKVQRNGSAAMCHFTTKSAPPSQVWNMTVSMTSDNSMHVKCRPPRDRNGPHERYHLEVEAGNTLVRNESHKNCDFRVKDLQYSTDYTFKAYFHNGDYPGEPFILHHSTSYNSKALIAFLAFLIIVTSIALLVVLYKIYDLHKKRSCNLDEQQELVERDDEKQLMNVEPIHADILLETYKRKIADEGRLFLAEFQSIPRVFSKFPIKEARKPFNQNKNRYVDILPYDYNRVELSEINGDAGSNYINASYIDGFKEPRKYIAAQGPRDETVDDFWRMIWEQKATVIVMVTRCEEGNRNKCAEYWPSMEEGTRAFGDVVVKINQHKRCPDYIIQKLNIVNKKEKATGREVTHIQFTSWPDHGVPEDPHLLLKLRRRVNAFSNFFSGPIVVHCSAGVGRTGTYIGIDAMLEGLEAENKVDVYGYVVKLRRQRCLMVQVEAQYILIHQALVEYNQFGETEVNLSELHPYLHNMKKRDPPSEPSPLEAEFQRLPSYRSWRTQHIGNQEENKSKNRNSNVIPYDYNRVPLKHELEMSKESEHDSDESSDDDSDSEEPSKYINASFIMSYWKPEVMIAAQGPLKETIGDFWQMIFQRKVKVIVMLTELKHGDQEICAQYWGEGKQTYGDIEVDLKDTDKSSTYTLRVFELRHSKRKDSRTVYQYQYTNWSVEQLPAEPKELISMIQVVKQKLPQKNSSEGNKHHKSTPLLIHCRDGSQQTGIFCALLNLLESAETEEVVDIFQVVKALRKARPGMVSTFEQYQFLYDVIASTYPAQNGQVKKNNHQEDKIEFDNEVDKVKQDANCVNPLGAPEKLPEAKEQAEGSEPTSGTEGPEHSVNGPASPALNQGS

[3] = biological target: T2, Tyrosine-protein phosphatase non-receptor type 1 (Homo sapiens, UniProt P18031); assay: Inhibition of human PTP1B
T2 sequence (P18031 whole entry): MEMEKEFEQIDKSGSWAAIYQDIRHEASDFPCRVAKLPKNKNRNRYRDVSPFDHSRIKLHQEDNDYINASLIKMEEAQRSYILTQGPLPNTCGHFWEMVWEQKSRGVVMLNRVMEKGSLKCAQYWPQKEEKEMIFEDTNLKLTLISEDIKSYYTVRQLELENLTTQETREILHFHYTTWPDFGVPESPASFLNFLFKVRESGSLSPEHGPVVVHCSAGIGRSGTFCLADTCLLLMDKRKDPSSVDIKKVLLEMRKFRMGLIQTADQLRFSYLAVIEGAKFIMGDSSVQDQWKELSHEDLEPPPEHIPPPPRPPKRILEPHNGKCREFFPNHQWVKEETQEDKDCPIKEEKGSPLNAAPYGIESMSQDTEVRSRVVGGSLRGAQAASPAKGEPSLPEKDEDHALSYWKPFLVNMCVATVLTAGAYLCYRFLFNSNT

[4] = biological target: T3, Tyrosine-protein phosphatase non-receptor type 2 (Homo sapiens, UniProt P17706); assay: Inhibition of human TCPTP
T3 sequence (P17706 whole entry): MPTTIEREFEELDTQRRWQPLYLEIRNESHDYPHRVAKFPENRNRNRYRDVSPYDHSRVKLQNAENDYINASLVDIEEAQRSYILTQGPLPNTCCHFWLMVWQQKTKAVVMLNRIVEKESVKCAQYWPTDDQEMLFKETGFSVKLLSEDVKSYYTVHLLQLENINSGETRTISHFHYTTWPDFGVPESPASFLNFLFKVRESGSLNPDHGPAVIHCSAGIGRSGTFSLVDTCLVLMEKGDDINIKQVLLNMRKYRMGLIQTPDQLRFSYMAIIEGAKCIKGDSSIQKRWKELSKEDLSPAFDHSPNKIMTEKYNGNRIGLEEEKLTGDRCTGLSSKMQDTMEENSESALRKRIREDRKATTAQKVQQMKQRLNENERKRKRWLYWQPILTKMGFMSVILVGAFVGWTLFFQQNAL

[5] = biological target: Receptor-type tyrosine-protein phosphatase F (Homo sapiens, UniProt P10586); assay: Inhibition of human LAR
NCI-H1975 = assay: Cytotoxicity against human NCI-H1975 cells assessed as reduction in cell viability after 24 hrs by CCK8 assay; assay type: functional, cell-based; settings: NCI-H1975, 24 h
Bacillus subtilis = assay: Antibacterial activity against Bacillus subtilis BS01 assessed as reduction in microbial growth after 12 hrs by microbroth dilution method; assay type: functional
[6] = system: Bacillus amyloliquefaciens; assay: Antibacterial activity against Bacillus amyloliquefaciens GDMCC 60233 assessed as reduction in microbial growth after 12 hrs by microbroth dilution method; assay type: functional
Escherichia coli [7] = assay: microbe, parasite or virus in culture; assay type: functional; settings: ATCC 25922, time 12 hrs
Description: Antibacterial activity against Escherichia coli ATCC 25922 assessed as reduction in microbial growth after 12 hrs by microbroth dilution method

Staphylococcus aureus [8] = assay: Antibacterial activity against Staphylococcus aureus ATCC 6538 assessed as reduction in microbial growth after 12 hrs by microbroth dilution method; assay type: functional
Staphylococcus aureus [9] = assay: Antibacterial activity against methicillin-resistant Staphylococcus aureus assessed as reduction in microbial growth after 12 hrs by microbroth dilution method; assay type: functional
Streptococcus agalactiae = assay: Antibacterial activity against Streptococcus agalactiae ATCC 13813 assessed as reduction in microbial growth after 12 hrs by microbroth dilution method; assay type: functional
Escherichia coli [10] = assay: Antibacterial activity against Escherichia coli assessed as reduction in microbial growth after 12 hrs by broth microdilution method; assay type: functional
Staphylococcus aureus [11] = assay: Antibacterial activity against methicillin-resistant Staphylococcus aureus assessed as reduction in microbial growth after 12 hrs by broth microdilution method; assay type: functional

Sequence of Tyrosine-protein phosphatase non-receptor type 6 (P29350 whole entry): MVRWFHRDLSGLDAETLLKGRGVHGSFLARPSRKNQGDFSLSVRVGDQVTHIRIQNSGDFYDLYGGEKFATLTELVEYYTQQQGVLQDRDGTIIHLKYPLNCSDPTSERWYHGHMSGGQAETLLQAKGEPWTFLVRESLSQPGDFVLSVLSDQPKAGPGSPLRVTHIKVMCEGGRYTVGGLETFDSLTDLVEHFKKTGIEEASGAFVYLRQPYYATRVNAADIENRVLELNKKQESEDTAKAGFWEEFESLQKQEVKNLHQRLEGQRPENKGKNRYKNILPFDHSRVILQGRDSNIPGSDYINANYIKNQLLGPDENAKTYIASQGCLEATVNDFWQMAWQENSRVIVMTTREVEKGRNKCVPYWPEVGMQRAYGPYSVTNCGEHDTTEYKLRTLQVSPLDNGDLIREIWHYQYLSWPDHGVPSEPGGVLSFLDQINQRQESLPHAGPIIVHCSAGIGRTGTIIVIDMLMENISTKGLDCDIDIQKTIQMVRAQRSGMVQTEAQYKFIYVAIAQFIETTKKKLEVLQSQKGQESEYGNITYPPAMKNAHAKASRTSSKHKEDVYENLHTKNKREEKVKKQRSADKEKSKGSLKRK
Sequence of Receptor-type tyrosine-protein phosphatase F (P10586 whole entry): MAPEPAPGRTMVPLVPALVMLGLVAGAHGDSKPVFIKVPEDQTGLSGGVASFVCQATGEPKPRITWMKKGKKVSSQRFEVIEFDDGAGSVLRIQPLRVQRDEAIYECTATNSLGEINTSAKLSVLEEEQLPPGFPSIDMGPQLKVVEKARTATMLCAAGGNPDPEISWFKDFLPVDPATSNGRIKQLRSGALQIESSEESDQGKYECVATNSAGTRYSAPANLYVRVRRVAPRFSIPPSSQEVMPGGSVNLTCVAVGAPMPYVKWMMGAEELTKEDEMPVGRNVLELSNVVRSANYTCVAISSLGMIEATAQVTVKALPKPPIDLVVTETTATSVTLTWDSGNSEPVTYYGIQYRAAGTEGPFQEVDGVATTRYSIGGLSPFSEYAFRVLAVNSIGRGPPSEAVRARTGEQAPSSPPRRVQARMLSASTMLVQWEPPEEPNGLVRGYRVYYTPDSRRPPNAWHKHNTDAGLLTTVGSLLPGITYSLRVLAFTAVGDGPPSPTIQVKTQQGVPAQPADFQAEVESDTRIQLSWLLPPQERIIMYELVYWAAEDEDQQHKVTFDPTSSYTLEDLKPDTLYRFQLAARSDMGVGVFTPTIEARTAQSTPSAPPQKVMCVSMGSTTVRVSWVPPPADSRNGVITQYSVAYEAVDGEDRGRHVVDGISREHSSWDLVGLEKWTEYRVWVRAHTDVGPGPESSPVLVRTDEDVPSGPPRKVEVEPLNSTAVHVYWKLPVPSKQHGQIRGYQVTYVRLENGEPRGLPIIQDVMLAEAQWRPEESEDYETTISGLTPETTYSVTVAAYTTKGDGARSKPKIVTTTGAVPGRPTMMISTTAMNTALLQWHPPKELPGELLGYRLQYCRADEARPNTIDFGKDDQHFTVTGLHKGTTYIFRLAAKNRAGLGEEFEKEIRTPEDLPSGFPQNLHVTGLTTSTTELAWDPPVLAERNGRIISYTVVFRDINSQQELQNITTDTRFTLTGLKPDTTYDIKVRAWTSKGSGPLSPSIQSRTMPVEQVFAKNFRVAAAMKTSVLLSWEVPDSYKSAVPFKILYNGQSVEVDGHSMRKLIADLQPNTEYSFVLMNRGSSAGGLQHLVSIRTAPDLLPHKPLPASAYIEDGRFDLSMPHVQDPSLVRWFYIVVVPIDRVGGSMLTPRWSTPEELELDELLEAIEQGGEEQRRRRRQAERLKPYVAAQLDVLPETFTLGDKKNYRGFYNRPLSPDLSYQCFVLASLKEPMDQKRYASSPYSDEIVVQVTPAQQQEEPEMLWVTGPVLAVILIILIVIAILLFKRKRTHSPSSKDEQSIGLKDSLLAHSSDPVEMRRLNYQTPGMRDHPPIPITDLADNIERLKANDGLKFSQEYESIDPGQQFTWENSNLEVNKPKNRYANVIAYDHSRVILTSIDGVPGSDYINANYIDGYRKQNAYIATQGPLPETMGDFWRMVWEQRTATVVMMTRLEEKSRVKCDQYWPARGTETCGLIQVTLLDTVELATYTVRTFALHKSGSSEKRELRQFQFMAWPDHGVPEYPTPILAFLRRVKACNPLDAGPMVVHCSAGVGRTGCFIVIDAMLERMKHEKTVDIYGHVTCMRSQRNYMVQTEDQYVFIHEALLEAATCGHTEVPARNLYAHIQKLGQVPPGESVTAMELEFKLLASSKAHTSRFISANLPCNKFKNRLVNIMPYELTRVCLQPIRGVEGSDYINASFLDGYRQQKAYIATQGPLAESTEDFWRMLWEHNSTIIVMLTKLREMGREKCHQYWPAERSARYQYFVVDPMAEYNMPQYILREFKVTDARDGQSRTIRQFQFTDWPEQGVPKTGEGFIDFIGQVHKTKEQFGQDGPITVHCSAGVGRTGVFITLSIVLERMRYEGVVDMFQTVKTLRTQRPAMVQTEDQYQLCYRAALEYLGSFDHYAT

Compound | IC50 [1] [µM] | IC50 [2] [µM] | IC50 [3] [µM] | IC50 [4] [µM] | IC50 [5] [µM] | IC50 (NCI-H1975) [µM] | MIC (Bacillus subtilis) [µg/mL] | MIC [6] [µg/mL] | MIC (Escherichia coli [7]) [µg/mL] | MIC (Staphylococcus aureus [8]) [µg/mL] | MIC (Staphylococcus aureus [9]) [µg/mL] | MIC (Streptococcus agalactiae) [µg/mL] | MIC (Escherichia coli [10]) [µg/mL] | MIC (Staphylococcus aureus [11]) [µg/mL]
C[C@@H]1C[C@H](C)[C@H]2[C@H]3Oc4ccc(cc4)C[C@]4(O)C[C@]5(C[C@H](O)OO[C@@]6(C)[C@H]7O[C@@]7(C)[C@H]([C@H]3[C@H]6C5=O)[C@]2(C)C1)C(=O)N4 | > 200 | > 200 | > 200 | > 200 | > 200 | > 80 | 50 | 50 | 50 (≈ 88.1 µM) | 50 | 50 | 50 |  | 
CC1=C[C@@]2(C)[C@@H]3C(=O)[C@@]4(C[C@@H]2O)C(=O)NC(Cc2ccc(cc2)O[C@H]2[C@H]3[C@@H]1[C@]1(C)C[C@H](C)C[C@H](C)[C@@H]21)[C@H]4O | 200 | > 200 | 100 | > 200 | > 200 |  | 10 | 20 | 5 (≈ 9.62 µM) | 10 | 10 | 10 | 2 | 2
CO[C@@H]1C2Cc3ccc(cc3)O[C@H]3[C@@H]4[C@H]5C(=O)[C@@]1(C[C@H](O)[C@@]5(C)C=C(C)[C@H]4[C@]1(C)C[C@H](C)C[C@H](C)[C@@H]31)C(=O)N2 | 80 | > 200 | 66 | > 200 | > 200 |  | 50 | 100 | 50 (≈ 93.7 µM) | 100 | 100 | 100 | 2 | 2
CO[C@@]12Cc3ccc(cc3)O[C@H]3[C@@H]4[C@H]5C(=O)[C@](C[C@H](O)OO[C@@]5(C)[C@H]5O[C@@]5(C)[C@H]4[C@]4(C)C[C@H](C)C[C@H](C)[C@@H]34)(C1)C(=O)N2 | > 200 | > 200 | > 200 | > 200 | > 200 | > 80 | 50 | 50 | 50 (≈ 86 µM) | 50 | 50 | 50 |  | 
CO[C@@]12Cc3ccc(cc3)O[C@H]3[C@H]([C@H]4C(=O)[C@](C[C@@H](O)[C@]4(C)C=O)(C1)C(=O)N2)[C@@H](C(C)=O)[C@]1(C)C[C@H](C)C[C@H](C)[C@@H]31 | 100 | > 200 | 58 | 130 | > 200 |  | 100 | 100 | 100 (≈ 177 µM) | > 100 | > 100 | > 100 |  | 
CC(=O)[C@@H]1[C@@H]2[C@H](Oc3ccc(cc3)C[C@]3(O)C[C@]4(C[C@@H](O)[C@](C)(C=O)[C@@H]2C4=O)C(=O)N3)[C@@H]2[C@@H](C)C[C@@H](C)C[C@]21C | > 200 | > 200 | > 200 | > 200 | > 200 | > 80 | 100 | 100 | 100 (≈ 181 µM) | > 100 | > 100 | > 100 |  | 
CN[C@@H]1[C@@H](O)[C@@H](O[C@@H]2[C@@H](O)[C@H](O[C@H]3O[C@H](CN)CC[C@H]3N)[C@@H](N)C[C@H]2N)OC[C@]1(C)O.O=S(=O)(O)O |  |  |  |  |  |  | 0.5 | 1 |  | 2 | 5 | 10 |  | 
C=C[C@@]1(C)C=C(C)[C@@H]2[C@@H]3[C@@H](Oc4ccc(cc4)C[C@@]4(O)C/C(=C(/O)[C@H]31)C(=O)N4)[C@@H]1[C@@H](C)C[C@@H](C)C[C@]12C | 100 | 100 | 89 | 92 | > 200 | 72 | 10 | 20 | 20 (≈ 39.7 µM) | 20 | 20 | 20 |  | 
C=C[C@@]1(C)C=C(C)[C@@H]2[C@@H]3[C@H](Oc4ccc(cc4)C[C@@H]4C(=O)NC(=O)[C@@H]4C(=O)[C@H]31)[C@@H]1[C@@H](C)C[C@@H](C)C[C@]12C |  | 8.1 | 25 | 14 | > 200 | 75 | 20 | 50 | 50 (≈ 99.7 µM) | 100 | 50 | 100 |  | 
CO[C@@H]1C2Cc3ccc(cc3)O[C@H]3[C@H]4[C@@H](C(C)=C[C@]5(C)CC[C@@]1(C(=O)N2)C(=O)[C@H]45)[C@]1(C)C[C@H](C)C[C@H](C)[C@@H]31 |  |  |  |  |  |  | > 100 | > 100 | > 100 | > 100 | > 100 | > 100 |  | 
CC(=O)c1ccc(NC2=C(Cl)C(=O)c3ccccc3C2=O)cc1 | 0.29 |  |  |  |  |  |  |  |  |  |  |  |  | 
C[C@@H]1C[C@H](C)[C@H]2[C@H]3Oc4ccc(cc4)C[C@]4(O)C/C(=C(/O)[C@H]5[C@H](C)[C@H]6O[C@@]6(C)[C@H]([C@H]35)[C@]2(C)C1)C(=O)N4 |  |  |  |  |  |  | 20 | 20 | 20 (≈ 40.5 µM) | 50 | 50 | 50 |  | 
CO[C@@H]1/C2=C3\O[C@@H](C)[C@@]4(C)C=C(C)[C@@H]5[C@H]([C@H](Oc6ccc(cc6)C[C@]1(O)NC2=O)[C@@H]1[C@@H](C)C[C@@H](C)C[C@]15C)[C@@H]34 | 63 | 190 | 39 | 79 | > 200 | 55 |  |  |  |  |  |  |  | 
CO[C@@H]1C2Cc3ccc(cc3)O[C@H]3[C@@H]4[C@H]5C(=O)[C@@]1(C[C@@H](O)[C@@]5(C)C=C(C)[C@H]4[C@]1(C)C[C@H](C)C[C@H](C)[C@@H]31)C(=O)N2 | 100 | > 200 | 100 | > 200 | > 200 |  | 10 | 20 | 5 (≈ 9.37 µM) | 20 | 20 | 20 | 2 | 2
